For series [1] the following is noted: in vivo.
Details of series [2]: species or system human. The note with it: in vivo.
On the set-up of series [3]: species or system human (medical worker volunteers). To be noted: in vivo, po.
For series [4] the following is noted: mouse, in vivo.
Details of series [5]: species or system domestic cat. The note with it: in vivo; for Equivalent dose (ED50), preventing motion sickness-like syndrome in cats: cat, po.
The conditions of series [6]: mouse, in vivo. The source holds these as a separate data set.
On the set-up of series [7]: species or system human (volunteers). The note with it: in vivo.
Details of series [8]: species or system Japanese white rabbit. To be noted: rabbit, in vivo; for Equivalent dose (ED50), preventing adversive circling syndrome in rabbits: po.
For series [9] the following is noted: mouse, in vivo. The source holds these as a separate data set.
Details of series [10]: species or system human (sailor volunteers). The note with it: in vivo, po.
On the set-up of series [11]: species or system human (volunteers). To be noted: in vivo. This is another data set of the same source.

Consider `OC(CCCN1CCCCC1)(c1ccccc1)c1ccccc1` [Diphenidol], for which the Incidence of somnolence in [1] is reported as 18.7%. In [2], the “Total effective, significantly effective and ineffective rates compared with placebo” value is given as “significantly different from those of the placebo group”. Further, in series [3], the “Ineffective rate, Bus” value is 18.2%; the “Significantly effective rate, Bus” value amounted to 49.1%; the “Total effective rate, Bus” value is 63.6%. For the same compound, the “C/A (ratio of ED50), inhibiting salivary secretion in mice” value in series [4] is reported as 13.6. Further, in series [5], the “Equivalent dose (ED50), preventing motion sickness-like syndrome in cats” value is 20.18 mg/kg and the “C/A (ratio of ED50 of diphenidol to that of the composition), motion sickness-like syndrome in cats” value was determined as 91.3. Moreover, the “C/A (ratio of ED50), mydriatic effect in mice” value in [6] is on record as 10.5. Further, in [7], the “Effect on changes of electrogastrogram of body of stomach and gastric antrum” value was “obvious efficacy”. For the same compound, in series [7] (po), the “Amplitude of electrogastrogram of antrum of stomach, postmedication” value is recorded as 414 ± 265 μV and the “Amplitude of electrogastrogram of body of stomach, postmedication” value is recorded as 396 ± 227 μV. In series [8], the “C/A (ratio of ED50 of diphenidol to that of the composition), adversive circling in rabbits” value is more than 115 and the “Equivalent dose (ED50), preventing adversive circling syndrome in rabbits” value is recorded as more than 50 mg/kg. Further, the “C/A (ratio of ED50), potentiating sodium pentobarbital in mice” value in [9] worked out at 6.9. For the same compound, in series [10], the “Ineffective rate, Ship” value is given as 10.0%; the “Significantly effective rate, Ship” value amounted to 66.7%; the “Total effective rate, Ship” value is on record as 76.7%. In addition, the “Effect on changes of electronystagmogram” value in series [11] was “obvious efficacy”. Also, in series [11] (po), the “Nystagmus after rotation, postmedication” value is given as 11.2 ± 6.2 degree/s and the “Nystagmus during rotation, postmedication” value was 6.9 ± 3.4 degree/s.

Regarding `CN1[C@@H]2C[C@@H](OC(=O)[C@H](CO)c3ccccc3)C[C@H]1[C@@H]1O[C@@H]12` [Scopolamine], the “B/A (ratio of ED50), inhibiting salivary secretion in mice” value in series [4] was 0.13. Also, in [5], the “Equivalent dose (ED50), preventing motion sickness-like syndrome in cats” value is on record as 0.059 mg/kg and the “B/A (ratio of ED50 of scopolamine to that of the composition), motion sickness-like syndrome in cats” value was determined as 0.30. Further, in series [6], the “B/A (ratio of ED50), mydriatic effect in mice” value is recorded as 0.072. In series [8], the “B/A (ratio of ED50 of scopolamine to that of the composition), adversive circling in rabbits” value was determined as 0.30 and the “Equivalent dose (ED50), preventing adversive circling syndrome in rabbits” value is 0.129 mg/kg. In series [9], the “B/A (ratio of ED50), potentiating sodium pentobarbital in mice” value is on record as 0.24.

(Values after patent US6028198A (priority 1993, dated 2000).)
